Test results as given in patent US11964973B2 (priority 2019, dated 2024).
Where two headings read alike, the source gives them in different places.

Assays:
[1] = biological target: DGKα (Homo sapiens (Human), UniProt P23743); assay: biochemical; assay type: biochemical; settings: liposome (LIPGLO) assay
[2] = biological target: human DGKζ (Homo sapiens (Human), UniProt Q13574); assay: biochemical; assay type: biochemical; settings: liposome (LIPGLO) assay
[3] = system: Human venous whole blood (IFN-γ); assay: Human whole blood IFN-γ assay; assay type: cell-based
Description: Assay 10: Human Whole Blood IFN-γ Assay
Human venous whole blood (22.5 μL per well), obtained from healthy donors, was pre-treated with compounds for one hour at 37° C. in a humidified 95% air/5% CO2 incubator. The blood was stimulated with 2.5 μL anti-human CD3 and anti-CD28 mAb at a final concentration of 1 μg/mL each for 24 hours at 37° C. IFN-γ in the supernatants was measured using AlphLISA kit (Cat #AL217).

[4] = Homo sapiens, 24 h, human whole blood, anti-CD3 plus anti-CD28, 24 hours, read-out: INFg Whole Blood Normalized Agonist EC50
[5] = human whole blood, anti-CD3 plus anti-CD28, 24 hours, read-out: INFg Whole Blood Normalized Agonist EC50

Sequence of DGKα (P23743 whole entry, looked up): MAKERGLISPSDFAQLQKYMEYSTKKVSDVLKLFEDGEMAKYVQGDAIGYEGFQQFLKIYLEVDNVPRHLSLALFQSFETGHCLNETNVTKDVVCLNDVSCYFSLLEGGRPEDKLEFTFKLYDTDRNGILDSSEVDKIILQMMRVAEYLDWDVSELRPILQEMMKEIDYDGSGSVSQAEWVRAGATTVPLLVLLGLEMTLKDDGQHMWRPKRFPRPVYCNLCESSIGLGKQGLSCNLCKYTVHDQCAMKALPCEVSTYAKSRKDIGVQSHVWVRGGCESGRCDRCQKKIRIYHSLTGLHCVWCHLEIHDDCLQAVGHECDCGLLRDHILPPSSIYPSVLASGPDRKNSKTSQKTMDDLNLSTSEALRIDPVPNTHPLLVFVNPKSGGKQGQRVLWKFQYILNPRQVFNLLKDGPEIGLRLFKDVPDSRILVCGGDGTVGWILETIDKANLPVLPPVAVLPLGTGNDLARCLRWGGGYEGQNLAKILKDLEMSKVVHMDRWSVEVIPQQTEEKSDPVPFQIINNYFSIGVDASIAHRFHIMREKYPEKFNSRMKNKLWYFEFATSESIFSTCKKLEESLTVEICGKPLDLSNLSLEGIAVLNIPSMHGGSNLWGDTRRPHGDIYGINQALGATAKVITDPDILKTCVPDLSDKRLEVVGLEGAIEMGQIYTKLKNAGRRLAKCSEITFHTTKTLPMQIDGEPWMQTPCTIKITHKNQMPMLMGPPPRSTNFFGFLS
Sequence of human DGKζ (Q13574 whole entry, looked up): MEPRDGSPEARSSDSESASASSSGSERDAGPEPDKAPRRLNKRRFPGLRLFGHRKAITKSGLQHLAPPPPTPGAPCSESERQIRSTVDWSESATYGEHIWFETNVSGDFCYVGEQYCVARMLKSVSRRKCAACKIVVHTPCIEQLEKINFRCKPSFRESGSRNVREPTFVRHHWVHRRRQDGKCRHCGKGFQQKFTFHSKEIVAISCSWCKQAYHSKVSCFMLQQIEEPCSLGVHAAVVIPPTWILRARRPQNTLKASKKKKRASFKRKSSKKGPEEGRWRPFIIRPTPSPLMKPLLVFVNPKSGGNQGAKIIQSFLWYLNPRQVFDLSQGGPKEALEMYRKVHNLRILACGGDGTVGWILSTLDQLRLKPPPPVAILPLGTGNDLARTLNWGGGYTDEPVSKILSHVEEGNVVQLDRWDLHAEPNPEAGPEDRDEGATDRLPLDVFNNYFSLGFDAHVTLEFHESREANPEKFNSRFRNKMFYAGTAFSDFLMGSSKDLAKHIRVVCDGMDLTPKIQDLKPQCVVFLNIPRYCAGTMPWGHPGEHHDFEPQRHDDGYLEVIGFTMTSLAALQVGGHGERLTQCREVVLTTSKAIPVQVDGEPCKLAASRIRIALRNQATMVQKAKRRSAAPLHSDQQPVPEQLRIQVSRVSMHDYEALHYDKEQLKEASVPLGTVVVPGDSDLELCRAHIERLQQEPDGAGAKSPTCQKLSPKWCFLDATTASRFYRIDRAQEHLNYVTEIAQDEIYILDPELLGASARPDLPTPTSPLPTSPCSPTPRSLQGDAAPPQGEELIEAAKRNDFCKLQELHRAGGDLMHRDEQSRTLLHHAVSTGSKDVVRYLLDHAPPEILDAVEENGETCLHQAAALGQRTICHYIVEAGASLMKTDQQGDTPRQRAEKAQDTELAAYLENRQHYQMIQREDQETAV

Row | SMILES | IC50 ([1]; read-out: DGKα LIPGLO IC50) | IC50 ([2]; read-out: DGKζ LIPGLO IC50) | EC50 [3, 4] | EC50 [3, 5] | IC50 ([1]; Table A, read-out: DGKα) | IC50 ([2]; Table A, read-out: DGKζ) | EC50 ([3]; human whole blood IFN-γ, read-out: INFg Whole Blood)
1 | Cn1c(=O)cc(N2CCC(Oc3ccc(Cl)cn3)CC2)c2nc(C#N)ccc21 [Example 67, 8-(4-((5-chloropyridin-2-yl)oxy)piperidin-1-yl)-5-methyl-6-oxo-5,6-dihydro-1,5-naphthyridine-2-carbonitrile] | 1600 nM | 7100 nM | 2700 nM | – | – | – | –
2 | COc1cc(OC2CCN(c3cc(=O)n(C)c4ccc(C#N)nc34)CC2)nc2cc(Cl)ccc12 [Example 73, 8-(4-((7-chloro-4-methoxyquinolin-2-yl)oxy)piperidin-1-yl)-5-methyl-6-oxo-5,6-dihydro-1,5-naphthyridine-2-carbonitrile] | 2200 nM | 8300 nM | 20000 nM | – | – | – | –
3 | Cn1c(=O)cc(N2CCC(Oc3ccc(C4CC4)cc3)CC2)c2nc(C#N)ccc21 [Example 59, 8-(4-(4-cyclopropylphenoxy)piperidin-1-yl)-5-methyl-6-oxo-5,6-dihydro-1,5-naphthyridine-2-carbonitrile] | 1000 nM | 3700 nM | 6400 nM | – | – | – | –
4 | CC[C@@H]1CN(c2cc(=O)n(C)c3ccc(C#N)nc23)CC[C@H]1Oc1ccc(OC(C)(C)C)cc1 (single isomer, unassigned) [Example 159] | 130 nM | 2300 nM | 4200 nM | – | – | – | –
5 | CCC(C)(C)c1ccc(OC2CCN(c3cc(=O)n(C)c4ccc(C#N)nc34)CC2)cc1 [Example 54, 5-methyl-6-oxo-8-(4-(4-(tert-pentyl)phenoxy)piperidin-1-yl)-5,6-dihydro-1,5-naphthyridine-2-carbonitrile] | 540 nM | 2100 nM | 2300 nM | – | – | – | –
6 | Cc1cc(OC2CCN(c3cc(=O)n(C)c4ccc(C#N)nc34)CC2)ccc1C(C)C [Example 60, 8-(4-(4-isopropyl-3-methylphenoxy)piperidin-1-yl)-5-methyl-6-oxo-5,6-dihydro-1,5-naphthyridine-2-carbonitrile] | 240 nM | 5500 nM | 7900 nM | – | – | – | –
7 | CC(C)c1ccc(O[C@@H]2CCN(c3cc(=O)n(C)c4ccc(C#N)nc34)C[C@H]2C)cc1 (single isomer, unassigned) [Example 96] | 57 nM | 20000 nM | – | 2600 nM | – | – | –
8 | Cn1c(=O)cc(N2CCC(Oc3ccc(C4CCCC4)cc3)CC2)c2nc(C#N)ccc21 [Example 58, 8-(4-(4-cyclopentylphenoxy)piperidin-1-yl)-5-methyl-6-oxo-5,6-dihydro-1,5-naphthyridine-2-carbonitrile] | 340 nM | 2900 nM | 5900 nM | – | – | – | –
9 | CC(C)c1ccc(O[C@H]2CCN(c3cc(=O)n(C)c4ccc(C#N)nc34)C[C@H]2C)cc1 (single isomer, unassigned) [Example 184] | – | – | – | – | 1400 nM | 6000 nM | 4000 nM
10 | C[C@@H]1CN(c2cc(=O)n(C)c3ccc(C#N)nc23)CC[C@H]1Oc1ccc(F)cc1C(F)(F)F [Example 116, 8-((3R,4R)-4-(4-fluoro-2-(trifluoromethyl)phenoxy)-3-methylpiperidin-1-yl)-5-methyl-6-oxo-5,6-dihydro-1,5-naphthyridine-2-carbonitrile] | 450 nM | 13000 nM | 4700 nM | – | – | – | –
11 | CCCc1ccc(OC2CCN(c3cc(=O)n(C)c4ccc(C#N)nc34)CC2)cc1 [Example 57, 5-methyl-6-oxo-8-(4-(4-propylphenoxy)piperidin-1-yl)-5,6-dihydro-1,5-naphthyridine-2-carbonitrile] | 730 nM | 6100 nM | 4300 nM | – | – | – | –
12 | CCCCc1ccc(OC2CCN(c3cc(=O)n(C)c4ccc(C#N)nc34)CC2)cc1 [Example 56, 8-(4-(4-butylphenoxy)piperidin-1-yl)-5-methyl-6-oxo-5,6-dihydro-1,5-naphthyridine-2-carbonitrile] | 840 nM | 13000 nM | 3800 nM | – | – | – | –
13 | CC(C)c1ccc(O[C@H]2CCN(c3cc(=O)n(C)c4ccc(C#N)nc34)C[C@H]2C)cc1 [Example 182, 8-((3R,4S)-4-(4-isopropylphenoxy)-3-methylpiperidin-1-yl)-5-methyl-6-oxo-5,6-dihydro-1,5-naphthyridine-2-carbonitrile] | 1100 nM | 1800 nM | – | 2800 nM | – | – | –
14 | C[C@@H]1CN(c2cc(=O)n(C)c3ccc(C#N)nc23)CC[C@H]1Oc1cccc(C2CC2)c1 [Example 91, 8-((3R,4R)-4-(3-cyclopropylphenoxy)-3-methylpiperidin-1-yl)-5-methyl-6-oxo-5,6-dihydro-1,5-naphthyridine-2-carbonitrile] | 65 nM | 14000 nM | 4400 nM | – | – | – | –
15 | C[C@@H]1CN(c2cc(=O)n(C)c3ccc(C#N)nc23)CC[C@H]1Oc1ccc(F)cc1C(F)(F)F (single isomer, unassigned) [Example 117] | 2000 nM | 20000 nM | 4600 nM | – | – | – | –
16 | CC(C)c1cccc(O[C@@H]2CCN(c3cc(=O)n(C)c4ccc(C#N)nc34)C[C@H]2C)c1 [Example 122, 8-((3R,4R)-4-(3-isopropylphenoxy)-3-methylpiperidin-1-yl)-5-methyl-6-oxo-5,6-dihydro-1,5-naphthyridine-2-carbonitrile] | 17 nM | 28000 nM | 5800 nM | – | – | – | –
17 | CCc1cnc(O[C@H]2CCN(c3cc(=O)n(C)c4ccc(C#N)nc34)C[C@H]2C)nc1 [Example 221, 8-((3R,4S)-4-((5-ethylpyrimidin-2-yl)oxy)-3-methylpiperidin-1-yl)-5-methyl-6-oxo-5,6-dihydro-1,5-naphthyridine-2-carbonitrile] | – | – | – | – | 350 nM | 1800 nM | –
18 | CC[C@@H]1CN(c2cc(=O)n(C)c3ccc(C#N)nc23)CC[C@H]1Oc1cccc(C(C)C)c1 (racemic) [Example 137, 8-((3R,4R)-3-ethyl-4-(3-isopropylphenoxy)piperidin-1-yl)-5-methyl-6-oxo-5,6-dihydro-1,5-naphthyridine-2-carbonitrile] | 36 nM | 920 nM | – | – | – | – | –
19 | C[C@@H]1CN(c2cc(=O)n(C)c3ccc(C#N)nc23)CC[C@@H]1Oc1cccc(C2CC2)c1 [Example 181, 8-((3R,4S)-4-(3-cyclopropylphenoxy)-3-methylpiperidin-1-yl)-5-methyl-6-oxo-5,6-dihydro-1,5-naphthyridine-2-carbonitrile] | 61 nM | 1400 nM | – | – | – | – | –
20 | C[C@@H]1CN(c2cc(=O)n(C)c3ccc(C#N)nc23)CC[C@H]1Oc1c(F)cc(F)cc1F [Example 131, 5-methyl-8-((3R,4R)-3-methyl-4-(2,4,6-trifluorophenoxy)piperidin-1-yl)-6-oxo-5,6-dihydro-1,5-naphthyridine-2-carbonitrile] | 3100 nM | ≥ 250000 nM | – | – | – | – | –
21 | CCC(C)(C)c1ccc(O[C@@H]2CCN(c3c(C#N)c(=O)n(C)c4ccc(C#N)nc34)C[C@H]2C)cc1 (single isomer, unassigned) [Example 230, 5-methyl-8-(trans-3-methyl-4-(4-(tert-pentyl)phenoxy)piperidin-1-yl)-6-oxo-5,6-dihydro-1,5-naphthyridine-2,7-dicarbonitrile (rel)] | – | – | – | – | 3300 nM | ≥ 250000 nM | –
22 | CC[C@@H]1CN(c2cc(=O)n(C)c3ccc(C#N)nc23)CC[C@H]1Oc1cccc(OC(F)(F)F)c1 (single isomer, unassigned) [Example 163] | 42 nM | 360 nM | – | – | – | – | –
